Legend:
[1] = tested on: CYPRO; test: In-water applied (paddy) greenhouse weed control, CYPRO; format: in vivo, Cyperus rotundus L.; details: 19 DAA
Description: (§1) Weed seeds or nutlets of the desired test plant species were planted in puddled soil (mud) prepared by mixing a shredded, non-sterilized mineral soil (50.5 percent silt, 25.5 percent clay, and 24 percent sand, with a pH of about 7.6 and an organic matter content of about 2.9 percent) and water at a 1:1 volumetric ratio. The prepared mud was dispensed in 365 mL aliquots into 16-ounce (oz.) non-perforated plastic pots with a surface area of 86.59 square centimeters (cm^2) leaving a headspace of 3 centimeters (cm) in each pot. Mud was allowed to dry overnight prior to planting or transplanting. Rice seeds were planted in Sun Gro MetroMix® 306 planting mixture, which typically has a pH of 6.0 to 6.8 and an organic matter content of about 30 percent, in plastic plug trays. Seedlings at the second or third leaf stage of growth were transplanted into 840 mL of mud contained in 32-oz. non-perforated plastic pots with a surface area of 86.59 cm^2 4 days prior to herbicide application. The paddy was created by filling the headspace of the pots with 2.5 to 3 cm of water. When required to ensure good germination and healthy plants, a fungicide treatment and/or other chemical or physical treatment was applied. The plants were grown for 4-22 days in a greenhouse with an approximate 14 h photoperiod which was maintained at about 29′C during the day and 26° C. during the night. Nutrients were added as Osmocote® (19:6:12, N:P:K+minor nutrients) at 2 g per 16-oz. pot and 4 g per 960-mL 32-oz. pot. Water was added on a regular basis to maintain the paddy flood, and supplemental lighting was provided with overhead metal halide 1000-Watt lamps as necessary. The plants were employed for testing when they reached the second or third true leaf stage.
(§2) Treatments consisted of the acid or esters of 4-amino-3-chloro-5-fluoro-6-(4-chloro-2-fluoro-3-methoxy-phenyl)pyridine-2-carboxylic acid (compound A) each formulated as an SC and various herbicidal components alone and in combination. Forms of compound A were applied on an acid equivalent basis.
(§3) Other herbicidal components were applied on an active ingredient basis and included auxin transport inhibiting (ATI) herbicides chlorflurenol-methyl (technical material), chlorflurenol (technical material), diflufenzopyr (technical material), dilfufenzopyr sodium (technical material), flurenol-methyl (technical material,) and naptalam (technical material).
(§4) Treatment requirements for each compound or herbicidal component were calculated based upon the rates being tested, the concentration of active ingredient or acid equivalent in the formulation, an application volume of 2 mL per component per pot, and an application area of 86.59 cm^2 per pot.
(§5) For formulated compounds, a measured amount was placed in an individual 100 or 200 mL glass vial and was dissolved in a volume of 1.25% (v/v) Agri-Dex® crop oil concentrate to obtain application solutions.
(§6) For technical grade compounds, a weighed amount was placed in an individual 100 to 200 mL glass vial and was dissolved in a volume of acetone to obtain concentrated stock solutions. […] The concentrated stock solutions obtained were diluted with an equivalent volume of an aqueous mixture containing 2.5% (v/v) crop oil concentrate so that the final application solutions contained 1.25% (v/v) crop oil concentrate.
(§7) Applications were made by injecting with a pipetter appropriate amounts of the application solutions, individually and sequentially, into the aqueous layer of the paddy. Control plants were treated in the same manner with the solvent blank. Applications were made so that all treated plant material received the same concentrations of acetone and crop oil concentrate.
(§8) The treated plants and control plants were placed in a greenhouse as described above and water was added as needed to maintain a paddy flood. […]

[2] = tested on: ECHCG; test: In-water applied (paddy) greenhouse weed control, ECHCG; format: in vivo, Echinochloa crusgalli (L.) Beauv.; details: 19 DAA
Description: as §1, §2, §3, §4, §5, §6, §7, §8

[3] = tested on: FIMMI; test: In-water applied (paddy) greenhouse weed control, FIMMI; format: in vivo, Fimbristylis miliacea (L.) Vahl; details: 19 DAA
Description: as §1, §2, §3, §4, §5, §6, §7, §8

[4] = tested on: BRAPP; test: Postemergence foliar-applied greenhouse weed control, BRAPP; format: in vivo, Brachiaria platyphylla (Griseb.) Nash
Excerpt: (§9) Seeds or nutlets of the desired test plant species were planted in a soil matrix prepared by mixing a loam or sandy loam soil (e.g., 28.6 percent silt, 18.8 percent clay, and 52.6 percent sand, with a pH of about 5.8 and an organic matter content of about 1.8 percent) and calcareous grit in an 80 to 20 ratio. The soil matrix was contained in plastic pots with a volume of 1 quart and a surface area of 83.6 square centimeters (cm^2). When required to ensure good germination and healthy plants, a fungicide treatment and/or other chemical or physical treatment was applied. The plants were grown for 8-22 days in a greenhouse with an approximate 14 h photoperiod which was maintained at about 29° C. during the day and 26° C. during the night. Nutrients (Peters Excel® 15-5-15 5-Ca 2-Mg and iron chelate) were applied in the irrigation solution as needed and water was added on a regular basis. Supplemental lighting was provided with overhead metal halide 1000-Watt lamps as necessary. The plants were employed for testing when they reached the first through fourth true leaf stage.
(§10) Treatments consisted of the acid or esters of 4-amino-3-chloro-5-fluoro-6-(4-chloro-2-fluoro-3-methoxy-phenyl) pyridine-2-carboxylic acid (Compound A), each formulated as an SC (suspension concentrate), and various herbicidal components alone and in combination. Forms of compound A were applied on an acid equivalent basis.
as §3, with “chlorflurenol” for “chlorflurenol-methyl”, “chlorflurenol-methyl” for “chlorflurenol”, “diflufenzopyr” for “dilfufenzopyr”, “material)” for “material,)”
(§11) Treatment requirements were calculated based upon the rates being tested, the concentration of active ingredient or acid equivalent in the formulation, and a 12 mL application volume at a rate of 187 L/ha.
(§12) For treatments comprised of formulated and technical compounds, weighed amounts of the technical materials were placed individually in 25 mL glass vials and dissolved in a volume of 97:3 v/v acetone/DMSO to obtain 12× stock solutions, and measured amounts of the formulated compounds were placed individually in 25 mL glass vials and diluted in a volume of 1.5% (v/v) crop oil concentrate or water to obtain 12× stock solutions. […] Application solutions were prepared by adding an appropriate amount of each stock solution (e.g., 1 mL) and diluted to the appropriate final concentrations with the addition of an appropriate amount of an aqueous mixture of 1.5% (v/v) crop oil concentrate so that the final spray solutions contained 1.25% (v/v) crop oil concentrate. When required, additional water and/or 97:3 v/v acetone/DMSO was added to individual application solutions so that the final acetone and DMSO concentrations of the application solutions being compared were 8.1% and 0.25%, respectively.
(§13) All stock solutions and applications solutions were visually inspected for compound compatibility prior to application. Spray solutions were applied to the plant material with an overhead Mandel track sprayer equipped with an 8002E nozzle calibrated to deliver 187 L/ha over an application area of 0.503 m^2 at a spray height of 18 to 20 inches (46 to 50 cm) above average plant canopy height. Control plants were sprayed in the same manner with the solvent blank.
(§14) The treated plants and control plants were placed in a greenhouse as described above and watered by sub-irrigation to prevent wash-off of the test compounds. After approximately 3 weeks, the condition of the test plants as compared with that of the untreated plants was determined visually and scored on a scale of 0 to 100 percent where 0 corresponds to no injury or growth inhibition and 100 corresponds to complete kill. […]

[5] = tested on: IPOHE; test: Postemergence foliar-applied greenhouse weed control, IPOHE; format: in vivo, Ipomoea hederacea Jacq.
Excerpt: as §9, §10
as §3, with “chlorflurenol” for “chlorflurenol-methyl”, “chlorflurenol-methyl” for “chlorflurenol”, “diflufenzopyr” for “dilfufenzopyr”, “material)” for “material,)”
as §11, §12, §13, §14

[6] = tested on: ECHOR; test: In-water applied (paddy) greenhouse weed control, ECHOR; format: in vivo, Echinochloa oryzoides (Ard.) Fritsch; details: 19 DAA
Description: as §1, §2, §3, §4, §5, §6, §7, §8

[7] = tested on: LEFCH; test: Postemergence foliar-applied greenhouse weed control, LEFCH; format: in vivo, Leptochloa chinensis (L.) Nees
Excerpt: as §9, §10
as §3, with “chlorflurenol” for “chlorflurenol-methyl”, “chlorflurenol-methyl” for “chlorflurenol”, “diflufenzopyr” for “dilfufenzopyr”, “material)” for “material,)”
as §11, §12, §13, §14

[8] = tested on: ECHCO; test: Postemergence foliar-applied greenhouse weed control, ECHCO; format: in vivo, Echinochloa colona (L.) Link; details: 21 DAA
Excerpt: as §9, §10
as §3, with “chlorflurenol” for “chlorflurenol-methyl”, “chlorflurenol-methyl” for “chlorflurenol”, “diflufenzopyr” for “dilfufenzopyr”, “material)” for “material,)”
as §11, §12, §13, §14

[9] = tested on: DIGSA; test: Postemergence foliar-applied greenhouse weed control, DIGSA; format: in vivo, Digitaria sanguinalis (L.) Scop.; details: 21 DAA
Excerpt: as §9, §10
as §3, with “chlorflurenol” for “chlorflurenol-methyl”, “chlorflurenol-methyl” for “chlorflurenol”, “diflufenzopyr” for “dilfufenzopyr”, “material)” for “material,)”
as §11, §12, §13, §14

`C/C(=N\NC(=O)Nc1cc(F)cc(F)c1)c1ncccc1C(=O)O` [Diflufenzopyr sodium] was tested, and the “Visual Weed Control (%) Obs” value ([1]; 17.5 gai/ha) was 0%, the “Visual Weed Control (%) Obs” value ([1]; 35 gai/ha) was 0% and the “Visual Weed Control (%) Obs” value ([1]; 70 gai/ha) was 10%. For the same compound, the “Visual Weed Control (%) Obs” value ([2]; 17.5 gai/ha) was 20%, the “Visual Weed Control (%) Obs” value ([2]; 35 gai/ha) was 50% and the “Visual Weed Control (%) Obs” value ([2]; 70 gai/ha) was 20%. For the same compound, the “Visual Weed Control (%) Obs” value ([3]; 17.5 gai/ha) was 50%, the “Visual Weed Control (%) Obs” value ([3]; 35 gai/ha) was 55% and the “Visual Weed Control (%) Obs” value ([3]; 70 gai/ha) was 60%.
With `O=C(O)c1ccccc1C(=O)Nc1cccc2ccccc12` [Naptalam, 2-[(1-naphthalenylamino)carbonyl]benzoic acid, reference compound] the “Visual Weed Control (%) Obs” value ([4]; 22 DAA, 30 gai/ha) was 0%, the “Visual Weed Control (%) Obs” value ([4]; 22 DAA, 60 gai/ha) was 0% and the “Visual Weed Control (%) Obs” value ([4]; 22 DAA, 120 gai/ha) was 0%. The “Visual Weed Control (%) Obs” value ([5]; 22 DAA, 60 gai/ha) was 15%, the “Visual Weed Control (%) Obs” value ([5]; 22 DAA, 120 gai/ha) was 15% and the “Visual Weed Control (%) Obs” value ([1]; 330 gai/ha) was 0%. The “Visual Weed Control (%) Obs” value ([1]; 1320 gai/ha) was 50%, the “Visual Weed Control (%) Obs” value ([6]; 330 gai/ha) was 20% and the “Visual Weed Control (%) Obs” value ([6]; 660 gai/ha) was 25%. The “Visual Weed Control (%) Obs” value ([6]; 1320 gai/ha) was 30%, the “Visual Weed Control (%) Obs” value ([2]; 330 gai/ha) was 20% and the “Visual Weed Control (%) Obs” value ([7]; 22 DAA, 60 gai/ha) was 15%. For the same compound, the “Visual Weed Control (%) Obs” value ([7]; 22 DAA, 120 gai/ha) was 15% and the “Visual Weed Control (%) Obs” value ([3]; 330 gai/ha) was 50%.
With `C/C(=N\NC(=O)Nc1cc(F)cc(F)c1)c1ncccc1C(=O)O` [Diflufenzopyr, 2-{(E)-1-[4-(3,5-difluorophenyl)-semicarbazono]-ethyl}nicotinic acid] the “Visual Weed Control (%) Obs” value ([4]; 21 DAA, 8.75 gai/ha) was 0%, the “Visual Weed Control (%) Obs” value ([4]; 21 DAA, 17.5 gai/ha) was 40% and the “Visual Weed Control (%) Obs” value ([4]; 21 DAA, 35 gai/ha) was 80%. The “Visual Weed Control (%) Obs” value ([8]; 8.75 gai/ha) was 30%, the “Visual Weed Control (%) Obs” value ([8]; 17.5 gai/ha) was 30% and the “Visual Weed Control (%) Obs” value ([8]; 35 gai/ha) was 40%. The “Visual Weed Control (%) Obs” value ([5]; 21 DAA, 8.75 gai/ha) was 75%, the “Visual Weed Control (%) Obs” value ([5]; 21 DAA, 17.5 gai/ha) was 70% and the “Visual Weed Control (%) Obs” value ([9]; 17.5 gai/ha) was 10%. For the same compound, the “Visual Weed Control (%) Obs” value ([9]; 35 gai/ha) was 20%, the “Visual Weed Control (%) Obs” value ([7]; 21 DAA, 8.75 gai/ha) was 0% and the “Visual Weed Control (%) Obs” value ([7]; 21 DAA, 17.5 gai/ha) was 10%.
